Experimental data: patent US7632952B2, “Benzothiazoles and the use thereof as medicaments” (Aventis Pharma S.A., priority 2004, dated 2009)
Structures can show the parent of a compound that is named as a salt. Where two headings read alike, the source gives them in different places.

Legend:
CDK2/cyclin E = CDK2/cyclin E (Homo sapiens, UniProt P24941); experiment: CDK2/cyclin E Flashplate test in 96-well format; format: biochemical
Protocol: 1. Protocol CDK2/cyclin E:
Purification of the CDK2/cyclin E-(His)6 Complex by IMAC (Immobilized Metal Affinity Chromatography):
Two recombinant baculoviruses bearing the human sequences coding, respectively, for CDK2 and cyclin E (the latter comprising a C-terminal hexahistidine tag) are used to coinfect insect Sf21 cells. Two to three days after the start of coinfection, the cells are harvested by centrifugation and then stored at −40° C. until the time of use. After thawing and mechanical lysis of the cells, the complex present in the lysis supernatant is purified by affinity chromatography on nickel (IMAC), and stored at −80° C.
CDK2/cyclin E Flashplate Test in 96-Well Format
A format in 96-well plates coated with streptavidin is used to test the activity of the compounds on the kinase activity of CDK2/cyclin E.
To perform this test, the biotinylated peptide substrate, a fragment of the pRb protein (biotinyl-[…]-OH) is dissolved at a concentration of 1 mM in kinase buffer (HEPES/NaOH 50 mM, NaCl 1 mM, MgCl2 5 mM, pH 7.5) in order to constitute a stock solution stored at −20° C. in the form of 110 μl aliquots. On the day of the experiment, an aliquot of this solution is thawed and diluted in kinase buffer containing 1 mM of dithiothreitol, and added to the buffer extemporaneously, in order to obtain a concentration of 14.3 μM. 70 μl of this solution are added to each well of the Flashplate in order to obtain a final substrate concentration of 10 μM during the enzymatic reaction, performed in a final volume of the reaction medium of 100 μl (cf. below).
Intermediate dilutions of inhibitors (products of the invention) at various concentrations are prepared in DMSO from stock solutions at 10 mM in separate tubes. 1000 μM, 333.3 μM, 111.1 μM, 37.03 μM, 12.35 μM, 4.11 μM and 1.37 μM dilutions are thus prepared. 1 μl of each of these solutions (or 1 μl of DMSO for the controls) is transferred into the wells of the test plate.
Into each well are then added 19 μl of a solution of a mixture of adenosine triphosphate (ATP) and of ATPy^33P in the kinase buffer at a concentration of 5.26 μM of ATP total and 52.6 μCi/ml of ^33P. The enzymatic reaction is triggered by addition of 10 μl per well of a solution of CDK2/cyclin E at 200 nM in the kinase buffer containing 1 mM of dithiothreitol (or 10 μl of kinase buffer containing 1 mM of dithiothreitol for the reaction blanks).
After addition of all the reagents, the plate is incubated at 30° C. with orbital stirring at 650 rpm.
When the incubation is complete, the plate is washed three times with 300 μl per well of PBS (phosphate-buffered saline, pH=7.4, without calcium or magnesium, reference 10010-015, Gibco BRL). The incorporation of ^33P into the peptide is quantified by scintillation counting using a Packard Topcount.NXT machine. The inhibitory activity of the products of the invention is evaluated by measuring the inhibitory concentration that allows a 50% reduction in the enzymatic activity (IC50).

CDK4/cyclin D1 = CDK4/cyclin D1 (Homo sapiens, UniProt P11802); experiment: CDK4/cyclin D1 Flashplate test in 96-well format; format: biochemical
Protocol: 2. CDK4/cyclin D1 Protocol:
Purification of the CDK4-HA/cyclin D1-(His)6 Complex by IMAC (Immobilized Metal Affinity Chromatography):
Two recombinant baculoviruses bearing the human sequences coding, respectively, for CDK4-HA (C-terminal fusion with the hemaglutinin tag) and for cyclin D1-(His)6 are used to coinfect insect Sf9 cells. Sixty hours after the start of the coinfection, the cells are harvested by centrifugation and then frozen at −20° C. until the time of use.
CDK4/cyclin D1 Flashplate Test in 96-Well Format
A test in 96-well “Flashplate” plates coated with streptavidin is used to evaluate the inhibition of the CDK4/cyclin D1 kinase complex by the products of the invention. To perform this test, the biotinylated peptide substrate, a fragment of the pRb protein (biotinyl-[…]-amide) is dissolved at a concentration of 2 mM in kinase buffer (HEPES/NaOH 50 mM, NaCl 1 mM, MgCl2 5 mM, pH 7.5) in order to constitute a stock solution stored at −20° C. in the form of 110 μl aliquots. On the day of the experiment, an aliquot of this solution is thawed and diluted in kinase buffer containing 1 mM of dithiothreitol, and added to the buffer extemporaneously, in order to obtain a final peptide concentration of 2.571 μM. 70 μl of this solution are added to each well of the Flashplate in order to obtain a final substrate concentration of 1.8 μM during the enzymatic reaction, performed in a final volume of the reaction medium of 100 μl (cf. below). Intermediate dilutions of inhibitors (products of the invention) at various concentrations are prepared in DMSO from stock solutions at 10 mM in separate tubes. 1000 μM, 333.3 μM, 111.1 μM, 37.03 μM, 12.35 μM, 4.11 μM and 1.37 μM dilutions are thus prepared. 1 μl of each of these solutions (or 1 μl of DMSO for the controls) is then transferred into the wells of the test plate. Into each well are then added 19 μl of a solution of a mixture of adenosine triphosphate (ATP) and of ATPy^33P in the kinase buffer at a concentration of 5.26 μM of ATP total and 78.9 μCi/ml of ^33P. The enzymatic reaction is triggered by addition of 10 μl per well of a solution of CDK4/cyclin D1 at 250 nM in the kinase buffer containing 1 mM of dithiothreitol (or 10 μl of kinase buffer containing 1 mM of dithiothreitol for the reaction blanks).
After addition of all the reagents, the test plate is incubated at 30° C. with orbital stirring at 650 rpm. After the incubation, the plate is washed three times with 300 μl per well of PBS (phosphate-buffered saline, pH=7.4, without calcium or magnesium, reference 10010-015, Gibco BRL). The incorporation of ^33P into the substrate peptide is quantified by scintillation counting using a Packard Topcount.NXT machine. The inhibitory activity of the products of the invention is evaluated by measuring the inhibitory concentration that allows a 50% reduction in the enzymatic activity (IC50).

HeLa = HeLa proliferation; format: cell-based; settings: Homo sapiens, read-out: HeLa proliferation EC50 (nM) DG

Sequence of CDK4/cyclin D1 (P11802 whole entry): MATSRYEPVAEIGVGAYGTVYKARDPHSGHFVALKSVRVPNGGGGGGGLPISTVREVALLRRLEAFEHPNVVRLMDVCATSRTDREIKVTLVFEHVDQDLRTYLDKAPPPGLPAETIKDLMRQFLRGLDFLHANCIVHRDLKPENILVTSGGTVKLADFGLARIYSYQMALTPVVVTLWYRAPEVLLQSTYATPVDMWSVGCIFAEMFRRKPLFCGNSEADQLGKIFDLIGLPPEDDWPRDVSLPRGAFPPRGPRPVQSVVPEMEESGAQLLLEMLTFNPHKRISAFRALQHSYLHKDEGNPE
Sequence of CDK4/cyclin D1 (P24385 whole entry partner): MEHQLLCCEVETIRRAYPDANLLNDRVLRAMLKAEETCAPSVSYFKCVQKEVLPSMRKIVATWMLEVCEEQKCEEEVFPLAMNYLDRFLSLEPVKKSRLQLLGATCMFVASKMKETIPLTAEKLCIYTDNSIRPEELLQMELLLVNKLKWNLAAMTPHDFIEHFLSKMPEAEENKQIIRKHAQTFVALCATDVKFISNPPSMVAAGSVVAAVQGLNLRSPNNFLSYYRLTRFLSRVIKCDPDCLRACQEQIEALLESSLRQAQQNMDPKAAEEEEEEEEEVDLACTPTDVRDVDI

| IC50 (CDK2/cyclin E; read-out: CDK2 IC50) | IC50 (CDK4/cyclin D1) | EC50 (HeLa) | SMILES | IC50 (CDK2/cyclin E) |
| --- | --- | --- | --- | --- |
| 6.34 µM | > 10 µM |  | NCC(=O)Nc1nc2ccc(OS(=O)(=O)c3cccs3)cc2s1 [Example 33b, Thiophene-2-sulfonic acid 2-(2-amino-acetylamino)benzothiazol-6-yl ester; compound with trifluoroacetic acid] |  |
| 0.185 µM | 0.246 µM | 249 nM | CCCC(=O)Nc1nc2ccc(OS(=O)(=O)c3ccc(NCCNC(C)C)cc3)cc2s1 [Example 73, 4-(2-isopropylaminoethylamino)benzenesulfonic acid 2-butyrylaminobenzothiazol-6-yl ester; compound with trifluoroacetic acid] |  |
| 1.84 µM | 7.1 µM |  | NCCCCCCCC(=O)Nc1nc2ccc(OS(=O)(=O)c3cccs3)cc2s1 [Example 33f, Thiophene-2-sulfonic acid 2-(8-amino-octanoylamino)benzothiazol-6-yl ester; compound with trifluoroacetic acid] |  |
| 0.161 µM | 0.368 µM | 8960 nM | CC(C)CNc1ccc(S(=O)(=O)Oc2ccc3nc(NC(=O)CCCCCCCN)sc3c2)cc1 [Example 29b, 4-Isobutylaminobenzenesulfonic acid 2-(8-aminooctanoylamino)-benzothiazol-6-yl ester hydro-chloride] |  |
| 2.95 µM | 8.27 µM |  | NCCC(=O)Nc1nc2ccc(OS(=O)(=O)c3cccs3)cc2s1 [Example 33d, Thiophene-2-sulfonic acid 2-(3-amino-propionylamino)benzothiazol-6-yl ester; compound with trifluoroacetic acid] |  |
| 0.547 µM | 0.783 µM |  | CCNCCNc1ccc(S(=O)(=O)Oc2ccc3nc(NC(=O)CCCCCCCN)sc3c2)cc1 [Example 22b, 4-(2-ethylaminoethyl-amino)benzene sulfonic acid 2-(8-aminooctanoyl-amino)benzothiazol-6-yl ester] |  |
| 1.1 µM | 1.57 µM |  | NCCCCCCCC(=O)Nc1nc2ccc(OS(=O)(=O)c3ccc(NCCNCCO)cc3)cc2s1 [Example 22c, 4-[2-(2-hydroxyethyl-amino)ethylamino]benzene-sulfonic acid 2-(8-amino-octanoylamino)benzo-thiazol-6-yl ester hydro-chloride] |  |
| 8.27 µM | > 10 µM |  | CNCC(=O)Nc1nc2ccc(OS(=O)(=O)c3cccs3)cc2s1 [Example 33c, Thiophene-2-sulfonic acid 2-(2-methylamino-acetylamino)benzothiazol-6-yl ester; compound with trifluoroacetic acid] |  |

Continued, compound first:

| SMILES | IC50 (CDK2/cyclin E; read-out: CDK2 IC50) | IC50 (CDK4/cyclin D1) | EC50 (HeLa) | IC50 (CDK2/cyclin E) |
| --- | --- | --- | --- | --- |
| CCNCCNc1ccc(S(=O)(=O)Oc2ccc3nc(NC(=O)CC4CCNCC4)sc3c2)cc1 [Example 19b, 4-(2-Ethylaminoethyl-amino)benzenesulfonic acid 2-(2-piperid-4-ylacetyl-amino)benzothiazol-6-yl ester hydrochloride] | 5.47 µM | 0.732 µM |  |  |
| CC(C)NCCNc1ccc(S(=O)(=O)Oc2ccc3nc(NC(=O)CC4CCNCC4)sc3c2)cc1 [Example 18, 4-(2-isopropylaminoethylamino)benzenesulfonic acid 2-(2-piperid-4-ylacetylamino)benzothiazol-6-yl ester hydrochloride] | 2.68 µM | 0.48 µM |  |  |
| CC(C)NCCNc1ccc(S(=O)(=O)Oc2ccc3nc(NC(=O)C(C)C)sc3c2)cc1 [Example 75, 4-(2-isopropylaminoethylamino)benzenesulfonic acid 2-isobutyrylaminobenzothiazol-6-yl ester; compound with trifluoroacetic acid] | 0.445 µM | 0.874 µM | 195 nM |  |
| CC(C)(O)CNc1ccc(S(=O)(=O)Oc2ccc3nc(NC(=O)C4CCNCC4)sc3c2)cc1 [Example 5, 4-(2-hydroxy-2-methylpropylamino)benzene-sulfonic acid 2-[(piperidine-4-carbonyl)amino]benzothiazol-6-yl ester] | 0.995 µM | 3.97 µM |  |  |
| CC1(C)CC(Nc2ccc(S(=O)(=O)Oc3ccc4nc(NC(=O)C5CC5)sc4c3)cc2)CC(C)(C)N1[O] [Example 87, 4-(1-oxyl-2,2,6,6-tetramethylpiperidin-4-ylamino)-benzenesulfonic acid 2-(cyclopropanecarbonylamino)benzothiazol-6-yl ester] |  |  |  | 0.809 µM |
| CC(C)N(CCNc1ccc(S(=O)(=O)Oc2ccc3nc(NC(=O)CC4CCNCC4)sc3c2)cc1)C(C)C [Example 42, 4-(2-diisopropylaminoethylamino)benzenesulfonic acid 2-(2-piperid-4-ylacetylamino)benzothiazol-6-yl ester] | 1.14 µM | 0.202 µM |  |  |
| CC(C)N(CCNc1ccc(S(=O)(=O)Oc2ccc3nc(NC(=O)C4CNC4)sc3c2)cc1)C(C)C [Example 39, 4-(2-diisopropylaminoethylamino)benzenesulfonic acid 2-[(azetidine-3-carbonyl)amino]benzothiazol-6-yl ester] | 3.06 µM | 2.33 µM |  |  |
| CC(C)(O)CNc1ccc(S(=O)(=O)Oc2ccc3nc(NC(=O)CCC4CCNCC4)sc3c2)cc1 [Example 84, 4-(2-hydroxy-2-methylpropylamino)benzene-sulfonic acid 2-(3-piperidin-4-ylpropionylamino)benzothiazol-6-yl ester hydrochloride] | 0.22 µM | 0.683 µM |  |  |
| O=C(CC1CCNCC1)Nc1nc2ccc(OS(=O)(=O)c3ccc(NCCNCCO)cc3)cc2s1 [Example 19c, 4-[2-(2-Hydroxyethyl-amino)ethylamino]benzene-sulfonic acid 2-(2-piperid-4-ylacetylamino)benzo-thiazol-6-yl ester hydro-chloride] | 5.78 µM | 1.22 µM |  |  |
| O=C(CC1CCNCC1)Nc1nc2ccc(OS(=O)(=O)c3ccc(NCCCn4ccnc4)cc3)cc2s1 [Example 19a, 4-(3-Imidazol-1-ylpropyl-amino)benzenesulfonic acid 2-(2-piperid-4-ylacetyl-amino)benzothiazol-6-yl ester hydrochloride] | 2.72 µM | 0.471 µM |  |  |
